Measured values taken from patent publication US20090017070A1, “In vitro model for hepatitis c virion production” (priority 2004, published 2009).

Experiments:
[1] = tested on: HCV (JFH-1, genotype 2a) in Huh7 cells; experiment: Interferon treatment of HCV.JFH1-Rbz transfected Huh7 cells, viral production by HCV core Ag level in the medium; type: cell-based, Hepatitis C virus; details: treated with interferon one day after transfection, HCV core Ag level in medium (FIG. 13B)
Text: FIG. 13. Production of infectious HCV in culture. (A). Full-length genomic cDNAs of HCV genotypes 1a (H77), 2b (J6), and 2a (JFH-1) were cloned into the HCV-ribozyme construct as described in FIG. 7. The constructs and the pTHr plasmid containing the CG1b HCV genome as described above were transfected into Huh7 cells and tested for virus production in the medium by using HCV core Ag ELISA. (B) HCV.JFH1-Rbz construct was transfected to Huh7 cells and treated with interferon one day after transfection. Viral production was monitored by measurement of HCV core Ag level in the medium. (C) Long-term culture of HCV.JFH1.Rbz transfected Huh7 cells were maintained with serial passage for the indicated duration. Culture medium was harvested at indicated times for HCV core Ag level and HCV RNA titer. […] Multiple foci of cells with positive intracellular staining were detected.
HCV RNA, Protein Quantitation, and RACE. HCV RNA level was quantitated by using the TaqMan real-time PCR method as previously described (Thomson, M. et al. 2001 Gastroenterology 121:1226-33). […] The core protein was quantitated by using the HCV core ELISA kits, which were provided by S. Yagi (Advanced Life Technology, Saitama, Japan) and used as previously described (Tanaka, E. et al. 2000 Hepatology 32: 388-93). […]

[2] = tested on: HCV; details: HCV-infected individuals treated with IFN; cited from earlier work

In the case of interferon-alfa, the “Sensitivity of viral replication to interferon-alfa treatment” value [1] is given as “sensitive” and the “Proportion of those treated showing a sustained response as evidenced by lack of circulating HCV RNA” value [2] is given as 10-20%.
